In the assay the test system is isolated rat bladder smooth muscle cell. Description: Voltage clamp recording of outward current, rat cells. The class given is cell-based. The following applies: test potentials between −50 and 80 mV; n=5. An excerpt:
Rat detrusor cells are isolated in a manner previously described for guinea-pig detrusor (Sheldon J H, Norton N W and Argentieri T M (1997) Inhibition of guinea pig detrusor contraction by NS-1619 is associated with activation of BKCa and inhibition of calcium currents. J Pharmacol Exp Thera 283(3): 1193–1200). Male Sprague-Dawley rats (Charles River, Wilmington, Mass.; 200–400 grams) are euthanized by CO2 inhalation and exsanguination. Their urinary bladders are rapidly removed and placed in 37° C. physiological solution with the following composition (mM): Na glutamate (80.0), NaCl (54.7), KCl (5.0), NaHCO3 (25.0), MgCl2.2H2O (2.5), D-glucose (11.8) and CaCl2 (0.2) gassed with O2—CO2, 95%/5% for a final pH of 7.4. The dome of the bladder is isolated from the trigone region and the mucosa is removed. This tissue is then cut into 2–3 mm wide strips and placed into fresh buffer for 1 hour. Tissues are then transferred into 10 ml of an isolation buffer containing the above composition plus collagenase type VIII (1.0 mg/ml) and pronase (0.25 mg/ml). After 10 minutes the isolation buffer is replaced with fresh isolation buffer for an additional 10 min. The tissue is then washed 3 times in fresh collagenase and pronase free solution and stored at room temperature until studied. Cells for study are prepared by triturating 1–2 pieces of detrusor tissue in 2 ml of fresh isolation buffer for 5 minutes with a polished Pasteur pipette, (tip diameter ˜1.5 mm) attached to a modified Harvard Respirator pump (Harvard Apparatus, Southnatic, Mass.) at a rate of 20×/min. with an approximate volume of 5 ml. Cells are then placed on a microscope stage in a temperature regulated tissue bath at 32.5° C. and continually superfused with PSS.
Single cell recordings are performed with a List-Medical EPC-7 patch clamp amplifier (Adams & List Assoc., Westbury, N.Y.). Pipette electrodes had tip resistances of 2–4 MΩ and are filled with the following composition (mM): KCl (126.0), MgCl2.6H2O (4.5), ATP Mg salt (4.0), GTP tris salt (0.3), creatine PO4 (14.0), D-glucose (9.0), EGTA (9.0), HEPES (9.0). The pH is adjusted to 7.4 with KOH. Signals are acquired (3 kHz high frequency cut-off, 12 bit resolution) using a 586-based personal computer.
Whole cell recordings are made using broken patch access. Currents are evoked using either voltage steps (Vh=−50; Vt=−60 to 40 mV) or voltage ramps (−60 to 40 mV at 3.3 mV/sec.). The exact voltage clamp protocols are well known in the art. After stability is achieved control currents are recorded. Next, test compound is added to the superfusate. Currents are recorded for 5 to 10 minutes or until compound effects reach steady state. This is followed either by washout or addition of antagonists (linopirdine, XE-991) to the superfusate. […]

With `CCOC(=O)Nc1ccc(NCc2ccc(F)cc2)cc1N` [retigabine, N-[2-amino-4-(4-fluorobenzylamino)-phenyl]carbamic acid ethyl ester], the “effect on outward current” value is “increase in outward current”.
